IC50 data for one molecule are collected here from BindingDB's records for patent US10081629 (Jiangsu Hengrui Medicine, 2018).

The experiment addresses T1, Prostaglandin E synthase (Homo sapiens, UniProt O14684).
T1 sequence (O14684 whole entry): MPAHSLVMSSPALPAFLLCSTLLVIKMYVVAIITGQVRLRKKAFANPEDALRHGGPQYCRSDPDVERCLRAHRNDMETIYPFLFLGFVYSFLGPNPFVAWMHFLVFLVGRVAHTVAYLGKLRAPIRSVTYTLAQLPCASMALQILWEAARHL
As to the kind of experiment: mPGES1 enzyme assay. On the procedure: mPGES1 was diluted with assay buffer and added into plate at 49 μL/well supplemented with 1 μL of compound (the final concentration of each compound at seven gradient concentrations was 10000 nM, 1000 nM, 100 nM, 10 nM, 1 nM, 0.1 nM and 0.01 nM). […] Then, each well was added with 53.8 μL of 6 mg/mL SnCl2 to quench the reaction. The sample was diluted with dilute buffer at 1:400. 10 μl of diluted sample, 5 μL PGE2-d2 and 5 μL anti-PGE2 Cryptate were added to a black 384-well plate, and incubated at 4° C. overnight. HTRF was determined using Flexstation, and the IC50 of the compounds was obtained by data processing software.

What is called IC50 is the concentration at which inhibition is half-maximal.

For `COCCn1c(C2=CC=C(C(F)(F)F)CC2)cc2cc(NC(=O)c3cc(CNC(=O)C(C)(C)F)cnc3C(F)F)ccc21` [US10081629, Example 27], the IC50 was 13.4 nM.
